# Measurements: patent publication US12370187B2, “Composition containing antitumor drug, and preparation method thereof and use thereof” (KUNSHAN XINYUNDA BIOTECH CO., LTD., priority 2021, dated 2025)
# Where a name gives a salt, the structure may show the parent alone. Read-outs that look alike come from different tables or passages of the source.
# Legend:
# tumor cells = conditions: Zhang et al. 2004; cited from earlier work
# [1] = test system: human colon cancer cell line HCT116; conditions: for RTV / Tumor Weight: D 43
# From the text: One week after the last dose, tumors were taken from all mice, weighed, and photographed.
# [2] = test system: human triple-negative breast cancer cell line MDA-MB-231; assay: In vivo pharmacodynamic study on MDA-MB-231 tumor (Example 24); conditions: for Body weight increase compared with before administration: mouse, in vivo
# Protocol: One week after the last administration, tumors were taken from all the mice and weighed.
# The clinical symptoms observed during the experiment were recorded in the raw data. Tumor volume was calculated by the following formula: […]
# Relative tumor proliferation rate (T/C (%)) represents a ratio in percentage of relative tumor volumes or tumor weights of a treatment group and a control group at a time point, which was calculated by the following formula: […]
# Relative tumor inhibition rate (TGI (%)) was calculated by the following formula: […]
# [3] = test system: human colon cancer cell line SW620; conditions: for RTV (D 41) / T/C (%) RTV / T/C (%) TW / Tumor Weight (mg) (D 41): D 41
# human colon cancer HT-29 = assay: Anti-colon cancer activity, subcutaneously implanted HT-29 (Example 23); assay type: in vivo, BALB/c nude mice; conditions: Protocol I; 60 mg/kg iv
# [4] = test system: human ovarian cancer cell line SKOV-3; conditions: for RTV / Tumor Weight: D 42
# From the text: SKOV-3 tumor masses were subcutaneously inoculated to 80 BALB/c nude mice.
# [5] = test system: human colon cancer cell line SW620; assay: In vivo pharmacodynamic study in SW620 model (Example 34); conditions: 60 mg/kg iv QW × 4
# [6] = test system: human triple-negative breast cancer MDA-MB-231; assay: Anti-breast tumor activity, subcutaneously implanted MDA-MB-231 (Example 22); assay type: in vivo, BALB/c nude mice; conditions: Protocol I; 60 mg/kg iv
# [7] = CPT-11 80 mg/kg iv QW × 4, 2 surviving animals
structure (smiles),measurement,setting,value
"CCc1c2c(nc3ccc(O)cc13)-c1cc3c(c(=O)n1C2)COC(=O)[C@]3(O)CC [SN-38, 7-ethyl-10-hydroxycamptothecin]",Efficacy on some tumor cells relative to CPT-11,tumor cells,100-1000 times
"CCc1c2c(nc3ccc(OC(=O)N4CCC(N5CCCCC5)CC4)cc13)-c1cc3c(c(=O)n1C2)COC(=O)[C@]3(O)CC [CPT-11, irinotecan hydrochloride]",Reduction in body weight at the end of the experiment compared to before administration,[1]; CPT-11 60 mg/kg,14.41%
same,T/C (%) RTV,[1]; CPT-11 60 mg/kg iv QW × 4,35%
same,T/C (%) TW,[1]; CPT-11 60 mg/kg iv QW × 4,26%
same,RTV,[1]; CPT-11 60 mg/kg iv QW × 4,4.42 ± 1.05
same,Tumor Weight,[1]; CPT-11 60 mg/kg iv QW × 4,370 ± 87 mg
same,Reduction in body weight at the end of the experiment compared to before administration,[1]; CPT-11 80 mg/kg,16.00%
same,T/C (%) RTV,[1]; CPT-11 80 mg/kg iv QW × 4,16%
same,T/C (%) TW,[1]; CPT-11 80 mg/kg iv QW × 4,12%
same,RTV,[1]; CPT-11 80 mg/kg iv QW × 4,1.95 ± 0.31
same,Tumor Weight,[1]; CPT-11 80 mg/kg iv QW × 4,173 ± 34 mg
same,Animal death,[2]; CPT-11 60 mg/kg,No animal died
same,T/C (%) RTV,[2]; CPT-11 60 mg/kg iv QW × 3,24%
same,T/C (%) TW,[2]; CPT-11 60 mg/kg iv QW × 3,28%
same,RTV,"[2]; CPT-11 60 mg/kg iv QW × 3, D33",4.59 ± 1.04
same,T/C (%) RTV,[2]; CPT-11 80 mg/kg iv QW × 3,13%
same,T/C (%) TW,[2]; CPT-11 80 mg/kg iv QW × 3,16%
same,RTV,"[2]; CPT-11 80 mg/kg iv QW × 3, D33",2.46 ± 0.41
same,Tumor Weight,"[2]; CPT-11 80 mg/kg iv QW × 3, D33",391 ± 143 mg
same,Animal death,"[2]; CPT-11 80 mg/kg, 7 animals",one animal died
same,Body weight increase compared with before administration,[2]; 60 mg/kg,2.41%
same,Body weight increase compared with before administration,[2]; 80 mg/kg,1.950%
same,RTV (D 41),[3]; 60 mg/kg,4.69 ± 1.12
same,T/C (%) RTV,[3]; 60 mg/kg,28%
same,T/C (%) TW,[3]; 60 mg/kg,27%
same,Tumor Weight (mg) (D 41),[3]; 60 mg/kg,465 ± 91 mg
same,RTV (D 41),[3]; 80 mg/kg,5.95 ± 1.22
same,T/C (%) RTV,[3]; 80 mg/kg,36%
same,T/C (%) TW,[3]; 80 mg/kg,28%
same,Tumor Weight (mg) (D 41),[3]; 80 mg/kg,495 ± 91 mg
same,Body weight reduction at the end of the experiment compared with before administration,[3]; CPT-11 high dose (80 mg/kg),5.810%
same,Body weight reduction at the end of the experiment compared with before administration,[3]; CPT-11 low dose (60 mg/kg),0.99%
same,Tumor Inhibition Rate,human colon cancer HT-29,47%
same,T/C (%) RTV,[4]; CPT-11 60 mg/kg iv QW × 4,64%
same,T/C (%) TW,[4]; CPT-11 60 mg/kg iv QW × 4,67%
same,RTV,[4]; CPT-11 60 mg/kg iv QW × 4,9.20 ± 0.79
same,Tumor Weight,[4]; CPT-11 60 mg/kg iv QW × 4,1179 ± 150 mg
same,T/C (%) RTV,[4]; CPT-11 80 mg/kg iv QW × 4,79%
same,T/C (%) TW,[4]; CPT-11 80 mg/kg iv QW × 4,95%
same,RTV,[4]; [7],11.44 ± 0.21
same,Tumor Weight,[4]; [7],1664 ± 258 mg
same,Animals died,"[4]; CPT-11 80 mg/kg, 8 animals",6
same,Body weight increase at the end of the experiment,"[4]; CPT-11 high dose (80 mg/kg), two living animals",11.94%
same,Body weight increase at the end of the experiment,[4]; CPT-11 low dose (60 mg/kg),6.97%
same,T/C (%) TV,[5],8%
same,T/C (%) TW,[5],7%
same,TW (mg) (mean ± SEM),[5],99 ± 43 mg
same,"Body Weight (g, mean ± SEM) Day 11",[5]; Day 11,18.5 ± 0.6 g
same,TV (mm^3) Day 11 (mean ± SEM),[5]; Day 11,157 ± 18 mm^3
same,"Body Weight (g, mean ± SEM) Day 39",[5]; Day 39,19.2 ± 0.7 g
same,TV (mm^3) Day 39 (mean ± SEM),[5]; Day 39,154 ± 57 mm^3
same,Body Weight Change (%),[5]; Day 39 vs Day 11,+3.8%
same,Tumor Inhibition Rate,[6],71%
